The structures appear in SMILES notation.

In series [1] the test system is Rattus norvegicus. In words: Anti-inflammatory activity in Rattus norvegicus Wistar albino (rat) assessed as inhibition of carrageenan-induced paw edema at 69.8 X 10^2 umol/kg, po administered 1 hr prior to carrageenan challenge through oral gavage measured measured 1 hr after carrageenan treatment by plethysmometer. In kind it is functional.
The test system of series [2] is Rattus norvegicus. In words: Toxicity in Rattus norvegicus Wistar albino (rat) assessed as mortality at 69.8 umol/kg, po. In kind it is organism-based. The conditions noted are these: in vivo.
Series [3] relates to Rattus norvegicus. In words: Anti-inflammatory activity in Rattus norvegicus Wistar albino (rat) assessed as inhibition of carrageenan-induced paw edema at 69.8 X 10^2 umol/kg, po administered 1 hr prior to carrageenan challenge through oral gavage measured measured 4 hr after carrageenan treatment by plethysmometer. The class given is functional. A general note: The carrageenan paw model is a standard test of acute inflammation.

Series [4] deals with Oryctolagus cuniculus. In words: Inhibition of hyaluronidase-induced capillary permeability in albino Oryctolagus cuniculus (rabbit) assessed as area of subcutaneous spreading of trypan blue at 27.9 umol/kg, po pretreated 1 hr prior to mixture of hyaluronidase and trypan blue challenge measured after 30 min (reference value: 498.8 mm'2). The class given is functional.
For series [5], the system named is Rattus norvegicus. In words: Anti-inflammatory activity in Rattus norvegicus Wistar albino (rat) assessed as inhibition of carrageenan-induced paw edema at 69.8 X 10^2 umol/kg, po administered 1 hr prior to carrageenan challenge through oral gavage measured measured 2 hr after carrageenan treatment by plethysmometer. In kind it is functional.
The test system of series [6] is Rattus norvegicus. In words: Toxicity in Rattus norvegicus Wistar albino (rat) assessed as mortality at 139.6 umol/kg, po. In kind it is organism-based. The conditions noted are these: in vivo.
Series [7] concerns Oryctolagus cuniculus. In words: Inhibition of hyaluronidase-induced capillary permeability in albino Oryctolagus cuniculus (rabbit) assessed as area of subcutaneous spreading of trypan blue at 27.9 umol/kg, po pretreated 1 hr prior to mixture of hyaluronidase and trypan blue challenge measured after 5 min (reference value: 288.5 mm'2). The class given is functional.
Series [8] deals with Rattus norvegicus. In words: Toxicity in Rattus norvegicus Wistar albino (rat) assessed as mortality at 18.1 to 54.3 X 10^2 umol/kg, po. In kind it is organism-based. As to conditions: in vivo.
In series [9] the test system is Oryctolagus cuniculus. In words: Inhibition of hyaluronidase-induced capillary permeability in albino Oryctolagus cuniculus (rabbit) assessed as area of subcutaneous spreading of trypan blue at 7.24 x 10^2 umol/kg, po pretreated 1 hr prior to mixture of hyaluronidase and trypan blue challenge measured after 5 min (reference value: 288.5 mm'2). The class given is functional.

The test system of series [10] is Rattus norvegicus. In words: Toxicity in Rattus norvegicus Wistar albino (rat) assessed as lethargy at 18.1 to 36.2 X 10^2 umol/kg, po. The class given is organism-based. As to conditions: in vivo.
In series [11] the test system is Rattus norvegicus. In words: Toxicity in Rattus norvegicus Wistar albino (rat) assessed as mortality at 65.16 to 68.78 X 10^2 umol/kg, po measured after 12 hr. In kind it is organism-based. The conditions noted are these: in vivo.
Series [12] has as its system Rattus norvegicus. In words: Anti-inflammatory activity in Rattus norvegicus Wistar albino (rat) assessed as inhibition of carrageenan-induced paw edema at 3.62 X 10^2 umol/kg, po administered 1 hr prior to carrageenan challenge through oral gavage measured 2 hr after carrageenan treatment by plethysmometer. In kind it is functional.
In series [13] the test system is Rattus norvegicus. In words: Toxicity in Rattus norvegicus Wistar albino (rat) assessed as drinking frequency at 18.1 to 36.2 X 10^2 umol/kg, po. In kind it is organism-based. The conditions noted are these: in vivo.
Series [14] deals with Rattus norvegicus. In words: Anti-inflammatory activity in Rattus norvegicus Wistar albino (rat) assessed as inhibition of carrageenan-induced paw edema at 14.48 X 10^2 umol/kg, po administered 1 hr prior to carrageenan challenge through oral gavage measured measured 3 hr after carrageenan treatment by plethysmometer. In kind it is functional.
Series [15] relates to Rattus norvegicus. In words: Anti-inflammatory activity in Rattus norvegicus Wistar albino (rat) assessed as inhibition of carrageenan-induced paw edema at 14.48 X 10^2 umol/kg, po administered 1 hr prior to carrageenan challenge through oral gavage measured measured 4 hr after carrageenan treatment by plethysmometer. In kind it is functional.
For series [16], the system named is Rattus norvegicus. In words: Anti-inflammatory activity in Rattus norvegicus Wistar albino (rat) assessed as inhibition of carrageenan-induced paw edema at 7.24 X 10^2 umol/kg, po administered 1 hr prior to carrageenan challenge through oral gavage measured measured 4 hr after carrageenan treatment by plethysmometer. The class given is functional.
Series [17] relates to Rattus norvegicus. In words: Anti-inflammatory activity in Rattus norvegicus Wistar albino (rat) assessed as inhibition of carrageenan-induced paw edema at 14.48 X 10^2 umol/kg, po administered 1 hr prior to carrageenan challenge through oral gavage measured measured 1 hr after carrageenan treatment by plethysmometer. In kind it is functional.
Series [18] relates to Rattus norvegicus. In words: Anti-inflammatory activity in Rattus norvegicus Wistar albino (rat) assessed as inhibition of carrageenan-induced paw edema at 3.62 X 10^2 umol/kg, po administered 1 hr prior to carrageenan challenge through oral gavage measured 4 hr after carrageenan treatment by plethysmometer. The class given is functional.
The nature of series [19]: Toxicity in Rattus norvegicus Wistar albino (rat) assessed as mortality at 57.92 X 10^2 umol/kg, po. As to conditions: in vivo, read-out: Activity. In kind it is organism-based.
Series [20] concerns Oryctolagus cuniculus. In words: Inhibition of hyaluronidase-induced capillary permeability in albino Oryctolagus cuniculus (rabbit) assessed as area of subcutaneous spreading of trypan blue at 7.24 x 10^2 umol/kg, po pretreated 1 hr prior to mixture of hyaluronidase and trypan blue challenge measured after 30 min (reference value: 498.8 mm'2). The class given is functional.

The test system of series [21] is Rattus norvegicus. In words: Anti-inflammatory activity in Rattus norvegicus Wistar albino (rat) assessed as inhibition of carrageenan-induced paw edema at 7.24 X 10^2 umol/kg, po administered 1 hr prior to carrageenan challenge through oral gavage measured measured 1 hr after carrageenan treatment by plethysmometer. The class given is functional.
The test system of series [22] is Rattus norvegicus. In words: Toxicity in Rattus norvegicus Wistar albino (rat) assessed as animal posture at 61.54 umol/kg, po. In kind it is organism-based. The conditions noted are these: in vivo.
In series [23] the test system is Rattus norvegicus. In words: Anti-inflammatory activity in Rattus norvegicus Wistar albino (rat) assessed as inhibition of carrageenan-induced paw edema at 14.48 X 10^2 umol/kg, po administered 1 hr prior to carrageenan challenge through oral gavage measured measured 2 hr after carrageenan treatment by plethysmometer. In kind it is functional.
In series [24] the test system is Rattus norvegicus. In words: Toxicity in Rattus norvegicus Wistar albino (rat) assessed as lethargy at 54.3 X 10^2 umol/kg, po. In kind it is organism-based. The conditions noted are these: in vivo.
Series [25] relates to Oryctolagus cuniculus. In words: Inhibition of hyaluronidase-induced capillary permeability in albino Oryctolagus cuniculus (rabbit) assessed as area of subcutaneous spreading of trypan blue at 3.62 x 10^2 umol/kg, po pretreated 1 hr prior to mixture of hyaluronidase and trypan blue challenge measured after 30 min (reference value: 498.8 mm'2). The class given is functional.

Series [26] has as its system Rattus norvegicus. In words: Anti-inflammatory activity in Rattus norvegicus Wistar albino (rat) assessed as inhibition of carrageenan-induced paw edema at 7.24 X 10^2 umol/kg, po administered 1 hr prior to carrageenan challenge through oral gavage measured measured 2 hr after carrageenan treatment by plethysmometer. In kind it is functional.
Series [27] has as its system Rattus norvegicus. In words: Toxicity in Rattus norvegicus Wistar albino (rat) assessed as mortality at 68.78 X 10^2 umol/kg, po. The class given is organism-based. The conditions noted are these: in vivo.
Series [28] relates to Rattus norvegicus. In words: Anti-inflammatory activity in Rattus norvegicus Wistar albino (rat) assessed as inhibition of carrageenan-induced paw edema at 3.62 X 10^2 umol/kg, po administered 1 hr prior to carrageenan challenge through oral gavage measured 1 hr after carrageenan treatment by plethysmometer. The class given is functional.
Series [29] is described as follows: Toxicity in Rattus norvegicus Wistar albino (rat) assessed as mortality at 65.16 X 10^2 umol/kg, po. The class given is organism-based. The conditions noted are these: in vivo, read-out: Activity.
Series [30] deals with Rattus norvegicus. In words: Anti-inflammatory activity in Rattus norvegicus Wistar albino (rat) assessed as inhibition of carrageenan-induced paw edema at 3.62 X 10^2 umol/kg, po administered 1 hr prior to carrageenan challenge through oral gavage measured 3 hr after carrageenan treatment by plethysmometer. In kind it is functional.
Series [31] deals with Rattus norvegicus. In words: Toxicity in Rattus norvegicus Wistar albino (rat) assessed as lethargy at 57.92 X 10^2 umol/kg, po. In kind it is organism-based. The conditions noted are these: in vivo.
Series [32] can be described thus: Toxicity in Rattus norvegicus Wistar albino (rat) assessed as mortality at 61.54 X 10^2 umol/kg, po. The class given is organism-based. As to conditions: in vivo, read-out: Activity.
The subject of series [33] is Oryctolagus cuniculus. In words: Inhibition of hyaluronidase-induced capillary permeability in albino Oryctolagus cuniculus (rabbit) assessed as area of subcutaneous spreading of trypan blue at 3.62 x 10^2 umol/kg, po pretreated 1 hr prior to mixture of hyaluronidase and trypan blue challenge measured after 5 min (reference value: 288.5 mm'2). In kind it is functional.

Series [34] has as its system Rattus norvegicus. In words: Anti-inflammatory activity in Rattus norvegicus Wistar albino (rat) assessed as inhibition of carrageenan-induced paw edema at 7.24 X 10^2 umol/kg, po administered 1 hr prior to carrageenan challenge through oral gavage measured measured 3 hr after carrageenan treatment by plethysmometer. The class given is functional.
Series [35] can be described thus: Toxicity in po dosed Rattus norvegicus Wistar albino (rat) assessed as mortality. In kind it is organism-based. As to conditions: in vivo.

As to `COc1ccc2c(c1)c(CC(=O)O)c(C)n2C(=O)c1ccc(Cl)cc1` [INDOMETHACIN], the “inhibition (INH)” value with Rattus norvegicus [1] came out at 50%; in the series with Rattus norvegicus [3], 45%; in the series with Rattus norvegicus [5], 51%. Besides, the Activity result in the series with Rattus norvegicus [2] is given as “Non-toxic”; with Oryctolagus cuniculus [4], 279.3 mm2; with Rattus norvegicus [6], “Toxic”; with Oryctolagus cuniculus [7] it was 227 mm2.
Consider `O=c1ccc(O)ccc1O`, for which the Activity result is on record as “Non-toxic” with Rattus norvegicus [8]; 256 mm2 in the series with Oryctolagus cuniculus [9]; “Non-toxic” with Rattus norvegicus [10]; “Toxic” in the series on Rattus norvegicus [11]; “Non-toxic” with Rattus norvegicus [13]; 267.5 mm2 in the series on Oryctolagus cuniculus [20]. Besides, the Activity result in the series with Rattus norvegicus [22] was “Toxic”; in the series with Rattus norvegicus [24], “Toxic”; with Oryctolagus cuniculus [25], 196 mm2; with Rattus norvegicus [27] it was “Toxic”; in the series with Rattus norvegicus [31] it was “Toxic”; in the series on Oryctolagus cuniculus [33] it was 212.5 mm2. In addition, the “inhibition (INH)” value is recorded as 52% with Rattus norvegicus [12]; 83% in the series on Rattus norvegicus [14]; 75% in the series on Rattus norvegicus [15]; 67% in the series on Rattus norvegicus [16]; 76% with Rattus norvegicus [17]; 42% with Rattus norvegicus [18]. The “inhibition (INH)” value in the series on Rattus norvegicus [21] amounted to 41%; in the series with Rattus norvegicus [23] it was 75%; with Rattus norvegicus [26], 72%; with Rattus norvegicus [28], 48%; in the series with Rattus norvegicus [30], 45%; in the series with Rattus norvegicus [34], 79%. Besides, the results for the mortality in series [19], in [29] and in series [32] were 16%, 66% and 33%, respectively. For the same molecule, the LD50 – broadly, the dose expected to kill half of the subjects tested – in series [35] came to 6440 µmol/kg.

For the origin of these results see ChEMBL document CHEMBL3045501, “Anti-inflammatory activity of 2,5-dihydroxycyclohepta-2,4,6-trienone in rats” (Med Chem Res, 2010).
